Laboratory results from patent US20240067693A1, “POLYPEPTIDES AND USES THEREOF” (MEDIMMUNE LIMITED, priority 2020, published 2024).
Numbered stars: 1 amine (or outer) side, 2 acyl side, 3 side chain; on linkers, the order of the positions; unused ones are H or OH. Bridge positions count the residues as written; N and C are the ends. Square brackets hold non-standard residues; d marks the D form. Side chains are listed from the residue outwards. Peptide text beside a SMILES is read from it. * marks the point of attachment. C18 diacid = O=C(O)CCCCCCCCCCCCCCCCC(=O)*; γGlu = O=C(O)[C@H](CCC(=O)[*:2])N[*:1]; αMeF = C[C@](N)(Cc1ccccc1)C(=O)O; Aib = CC(C)(N)C(=O)O

How the values were obtained:
[1] = Thioflavin T fibrillation assay; assay type: physicochemical; settings: ThT fibrillation assay; peptide 1 mg/mL in 25 mM sodium acetate buffer pH 4.0; 6 days at 37 °C with shaking; >144 h = no increase
In short: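 Peptides at 1 mg/mL in 25 mM sodium acetate pH 4.0 with ThT (from 0.25 mM stock), incubated 6 days at 37 °C with intermittent orbital shaking at 500–750 rpm. Fluorescence (ex 444/em 480 nm) read every 30 min; value is average time to a rise in baseline-corrected signal.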

[2] = Pharmacokinetic determination via IV and SC administration in Sprague Dawley rats; settings: male, rat, plasma, 20 nmol/kg
[3] = target: T1, human calcitonin receptor (hCTR) (Homo sapiens, UniProt P30988); test: cAMP production in 1321N1 cells with stable recombinant expression of human calcitonin receptor (hCTR); assay type: cell-based; settings: cAMP, 1321N1 cells, assay buffer with 0.1% BSA; read-out: EC50 (pM) hCTR
T1 construct: expressed in transfected cells
T1 sequence (P30988 25-474): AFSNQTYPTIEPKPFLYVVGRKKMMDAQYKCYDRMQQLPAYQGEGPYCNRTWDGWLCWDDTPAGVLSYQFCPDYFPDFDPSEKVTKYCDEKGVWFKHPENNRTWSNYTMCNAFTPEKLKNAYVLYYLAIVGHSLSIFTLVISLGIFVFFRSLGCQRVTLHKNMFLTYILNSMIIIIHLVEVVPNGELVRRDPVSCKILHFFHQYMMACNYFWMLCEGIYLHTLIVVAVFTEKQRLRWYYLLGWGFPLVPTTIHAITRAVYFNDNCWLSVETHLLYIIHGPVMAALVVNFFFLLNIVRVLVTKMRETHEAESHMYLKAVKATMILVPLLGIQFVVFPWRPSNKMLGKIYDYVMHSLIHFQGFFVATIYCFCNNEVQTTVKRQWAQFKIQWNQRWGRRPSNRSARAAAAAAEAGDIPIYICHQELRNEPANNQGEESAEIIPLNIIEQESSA
In short: (§1)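 Receptor-expressing cells (human receptors in 1321N1, rat receptors in HEK) incubated 30 min at room temperature with peptide in HBSS/HEPES pH 7.4, 0.1% BSA, 0.5 mM IBMX. cAMP read by HTRF; EC50 from 4-parameter fit as % of maximal amylin or calcitonin response.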

[4] = target: T2, human amylin receptor (calcitonin receptor co-expressed with receptor activity modifying protein, RAMP3) (hAMYR3) (Homo sapiens, UniProt O60896+P30988); test: cAMP production in 1321N1 cells with stable recombinant expression of human amylin receptor (hAMYR3); assay type: cell-based; settings: for Ratio (selectivity hAMYR vs hCTR, ratio of EC50 values at the two receptors): EC50 hCTR / EC50 hAMYR3; for EC50: cAMP, 1321N1 cells, assay buffer with 0.1% BSA, read-out: EC50 (pM) hAMYR3
T2 construct: expressed in transfected cells
T2 sequence (P30988 25-474): T1 sequence (P30988 25-474)
T2 sequence (O60896 24-148 partner): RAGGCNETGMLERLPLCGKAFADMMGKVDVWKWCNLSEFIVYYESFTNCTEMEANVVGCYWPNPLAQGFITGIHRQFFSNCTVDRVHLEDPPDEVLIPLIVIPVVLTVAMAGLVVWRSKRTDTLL
In short: as §1

in vivo = settings: male, Sprague-Dawley, rat, 20 nmol/kg

Row | SMILES | Time taken to detect increase in fluorescence intensity [1] [h] | half-life ([2]; iv) [h] | half-life ([2]; sc) [h] | EC50 [3] [pM] | Ratio (selectivity hAMYR vs hCTR, ratio of EC50 values at the two receptors) [4] | EC50 [4] [pM] | half-life (in vivo; iv) [h] | half-life (in vivo; sc) [h]
1 | CC[C@H](C)[C@H](NC(=O)[C@@H]1CCCN1C(=O)CNC(=O)[C@](C)(Cc1ccccc1)NC(=O)[C@H](CC(N)=O)NC(=O)[C@H](CC(N)=O)NC(=O)[C@H](CO)NC(=O)[C@H](CO)NC(=O)[C@H](Cc1c[nH]cn1)NC(=O)[C@H](CCCNC(=N)N)NC(=O)[C@H](CC(C)C)NC(=O)[C@H](Cc1ccccc1)NC(=O)[C@H](CC(N)=O)NC(=O)[C@H](C)NC(=O)[C@H](CC(C)C)NC(=O)[C@H](CCCNC(=N)N)NC(=O)[C@H](CCC(N)=O)NC(=O)[C@@H](NC(=O)[C@H](C)NC(=O)[C@@H]1CSSC[C@H](NC(=O)[C@@H](N)CCCCNC(=O)CC[C@H](NC(=O)CCCCCCCCCCCCCCCCC(=O)O)C(=O)O)C(=O)N[C@@H](CC(N)=O)C(=O)N[C@@H]([C@@H](C)O)C(=O)N[C@@H](C)C(=O)N[C@@H]([C@@H](C)O)C(=O)N1)[C@@H](C)O)C(=O)N[C@@H](CC(C)C)C(=O)N1CCC[C@H]1C(=O)N1CCC[C@H]1C(=O)N[C@H](C(=O)N[C@@H](CC(N)=O)C(=O)N[C@H](C(=O)NCC(=O)N[C@@H](CO)C(=O)N[C@@H](CC(N)=O)C(=O)N[C@H](C(=O)N[C@@H](Cc1ccc(O)cc1)C(N)=O)[C@@H](C)O)C(C)C)[C@@H](C)O [Peptide 19, K(γE-C18diacid)[CNTATC]ATQRLANFLRHSSNN(αMePhe)GPILPPTNVGSNTY-amide] (H-K([γGlu-C18 diacid])CNTATCATQRLANFLRHSSNN[αMeF]GPILPPTNVGSNTY-NH2; disulfide 2-7; N-terminus assumed) | >144 | 6.6 | 9.3 | 4040 | 15 | 278 | – | –
2 | CC[C@H](C)[C@H](NC(=O)[C@@H]1CCCN1C(=O)CNC(=O)[C@H](Cc1ccccc1)NC(=O)[C@H](CC(N)=O)NC(=O)C(C)(C)NC(=O)[C@H](CO)NC(=O)[C@H](CO)NC(=O)[C@H](Cc1c[nH]cn1)NC(=O)[C@H](CCCNC(=N)N)NC(=O)[C@H](CC(C)C)NC(=O)[C@H](Cc1ccccc1)NC(=O)[C@H](CC(N)=O)NC(=O)[C@H](C)NC(=O)[C@H](CC(C)C)NC(=O)[C@H](CCCNC(=N)N)NC(=O)[C@H](CCC(N)=O)NC(=O)[C@@H](NC(=O)[C@H](C)NC(=O)[C@@H]1CSSC[C@H](NC(=O)[C@H](CCCCN)NC(=O)[C@@H](N)CCCCNC(=O)CC[C@H](NC(=O)CCCCCCCCCCCCCCCCC(=O)O)C(=O)O)C(=O)N[C@@H](CC(N)=O)C(=O)N[C@@H]([C@@H](C)O)C(=O)N[C@@H](C)C(=O)N[C@@H]([C@@H](C)O)C(=O)N1)[C@@H](C)O)C(=O)N[C@@H](CC(C)C)C(=O)N1CCC[C@H]1C(=O)N1CCC[C@H]1C(=O)N[C@H](C(=O)N[C@@H](CC(N)=O)C(=O)N[C@H](C(=O)NCC(=O)N[C@@H](CO)C(=O)N[C@@H](CC(N)=O)C(=O)N[C@H](C(=O)N[C@@H](Cc1ccc(O)cc1)C(N)=O)[C@@H](C)O)C(C)C)[C@@H](C)O [Peptide 65, K(γE-C18diacid)K[CNTATC]ATQRLANFLRHSS(Aib)NFGPILPPTNVGSNTY-amide] (H-K([γGlu-C18 diacid])KCNTATCATQRLANFLRHSS[Aib]NFGPILPPTNVGSNTY-NH2; disulfide 3-8) | – | 6 | 9.3 | 6400 | 31 | 207 | – | –
3 | CC[C@H](C)[C@H](NC(=O)[C@@H]1CCCN1C(=O)CNC(=O)[C@H](Cc1ccccc1)NC(=O)[C@H](CC(N)=O)NC(=O)[C@H](CC(N)=O)NC(=O)[C@H](CO)NC(=O)[C@H](CO)NC(=O)[C@H](Cc1c[nH]cn1)NC(=O)C(C)(C)NC(=O)[C@H](CC(C)C)NC(=O)[C@H](Cc1ccccc1)NC(=O)[C@H](CC(N)=O)NC(=O)[C@H](C)NC(=O)[C@H](CC(C)C)NC(=O)[C@H](CCCNC(=N)N)NC(=O)[C@H](CCC(N)=O)NC(=O)[C@@H](NC(=O)[C@H](C)NC(=O)[C@@H]1CSSC[C@H](NC(=O)[C@@H](N)CCCCNC(=O)CC[C@H](NC(=O)CCCCCCCCCCCCCCCCC(=O)O)C(=O)O)C(=O)N[C@@H](CC(N)=O)C(=O)N[C@@H]([C@@H](C)O)C(=O)N[C@@H](C)C(=O)N[C@@H]([C@@H](C)O)C(=O)N1)[C@@H](C)O)C(=O)N[C@@H](CC(C)C)C(=O)N1CCC[C@H]1C(=O)N1CCC[C@H]1C(=O)N[C@H](C(=O)N[C@@H](CCCNC(=N)N)C(=O)N[C@H](C(=O)NCC(=O)N[C@@H](CO)C(=O)N[C@@H](CC(N)=O)C(=O)N[C@H](C(=O)N[C@@H](Cc1ccc(O)cc1)C(N)=O)[C@@H](C)O)C(C)C)[C@@H](C)O [Peptide 155] (H-K([γGlu-C18 diacid])CNTATCATQRLANFL[Aib]HSSNNFGPILPPTRVGSNTY-NH2; disulfide 2-7; N-terminus assumed) | – | 7.7 | 8.9 | 3930 | 11.9 | 329 | – | –
4 | CC[C@H](C)[C@H](NC(=O)[C@@H]1CCCN1C(=O)CNC(=O)[C@H](Cc1ccccc1)NC(=O)[C@H](CC(N)=O)NC(=O)C(C)(C)NC(=O)[C@H](CO)NC(=O)[C@H](CO)NC(=O)[C@H](Cc1c[nH]cn1)NC(=O)[C@@H](NC(=O)[C@H](CC(C)C)NC(=O)[C@H](Cc1ccccc1)NC(=O)[C@H](CC(N)=O)NC(=O)[C@H](C)NC(=O)[C@H](CC(C)C)NC(=O)[C@H](CCCNC(=N)N)NC(=O)[C@H](CCC(N)=O)NC(=O)[C@@H](NC(=O)[C@H](C)NC(=O)[C@@H]1CSSC[C@H](NC(=O)[C@H](CCCCN)NC(=O)[C@@H](N)CCCCNC(=O)CC[C@H](NC(=O)CCCCCCCCCCCCCCCCC(=O)O)C(=O)O)C(=O)N[C@@H](CC(N)=O)C(=O)N[C@@H]([C@@H](C)O)C(=O)N[C@@H](C)C(=O)N[C@@H]([C@@H](C)O)C(=O)N1)[C@@H](C)O)C(C)C)C(=O)N[C@@H](CC(C)C)C(=O)N1CCC[C@H]1C(=O)N1CCC[C@H]1C(=O)N[C@H](C(=O)NC(C)(C)C(=O)N[C@H](C(=O)NCC(=O)N[C@@H](CO)C(=O)N[C@@H](CC(N)=O)C(=O)N[C@H](C(=O)N[C@@H](Cc1ccc(O)cc1)C(N)=O)[C@@H](C)O)C(C)C)[C@@H](C)O [Peptide 80, K(γE-C18diacid)K[CNTATC]ATQRLANFLVHSS(Aib)NFGPILPPT(Aib)VGSNTY-amide] (H-K([γGlu-C18 diacid])KCNTATCATQRLANFLVHSS[Aib]NFGPILPPT[Aib]VGSNTY-NH2; disulfide 3-8; N-terminus assumed) | >144 | – | – | 2970 | 7 | 407 | 9.7 | 9.9
5 | CC[C@H](C)[C@H](NC(=O)[C@@H]1CCCN1C(=O)CNC(=O)[C@H](Cc1ccccc1)NC(=O)[C@H](CC(N)=O)NC(=O)C(C)(C)NC(=O)[C@H](CO)NC(=O)[C@H](CO)NC(=O)[C@H](Cc1c[nH]cn1)NC(=O)C(C)(C)NC(=O)[C@H](CC(C)C)NC(=O)[C@H](Cc1ccccc1)NC(=O)[C@H](CC(N)=O)NC(=O)[C@H](C)NC(=O)[C@H](CC(C)C)NC(=O)[C@H](CCCNC(=N)N)NC(=O)[C@H](CCC(N)=O)NC(=O)[C@@H](NC(=O)[C@H](C)NC(=O)[C@@H]1CSSC[C@H](NC(=O)[C@H](CCCCN)NC(=O)[C@@H](N)CCCCNC(=O)CC[C@H](NC(=O)CCCCCCCCCCCCCCCCC(=O)O)C(=O)O)C(=O)N[C@@H](CC(N)=O)C(=O)N[C@@H]([C@@H](C)O)C(=O)N[C@@H](C)C(=O)N[C@@H]([C@@H](C)O)C(=O)N1)[C@@H](C)O)C(=O)N[C@@H](CC(C)C)C(=O)N1CCC[C@H]1C(=O)N1CCC[C@H]1C(=O)N[C@H](C(=O)N[C@@H](CC(N)=O)C(=O)N[C@H](C(=O)NCC(=O)N[C@@H](CO)C(=O)N[C@@H](CC(N)=O)C(=O)N[C@H](C(=O)N[C@@H](Cc1ccc(O)cc1)C(N)=O)[C@@H](C)O)C(C)C)[C@@H](C)O [Peptide 36, K(γE-C18diacid)K[CNTATC]ATQRLANFL(Aib)HSS(Aib)NFGPILPPTNVGSNTY-amide] (H-K([γGlu-C18 diacid])KCNTATCATQRLANFL[Aib]HSS[Aib]NFGPILPPTNVGSNTY-NH2; disulfide 3-8; N-terminus assumed) | – | 7.2 | 11.6 | 6390 | 19 | 331 | – | –
